Experimental findings from ChEMBL document CHEMBL1201862, “PubChem BioAssay data set” (2004) are described below.

The structures appear in SMILES notation. The source made the active and inactive calls. For most assays here, no stated cut-off is given here; in the data, actives have a measured EC50 and inactives only a lower limit.

Test [1] is described as follows: inhibition of K1F phage lysis, E. coli UTI89, bacterial capsule biogenesis inhibitors, alamar blue (AID 488966). The test is classed as functional.
A short description of test [2]: inhibitors of firefly luciferase expression or activity, dose response, H4 neuroglioma cells, luminescence (AID 1990). In kind it is functional, cell-based.
Test [3] concerns BJ. The test can be described thus: cells. In kind it is functional, cell-based. To be noted: Homo sapiens.
Another test concerns the target Trypsin (Sus scrofa, UniProt P00761). Kind of test: porcine trypsin inhibitors, dose response, selectivity assay for Rce1 protease inhibitor project, biochemical, quenched peptide fluorescence, cherry-pick (AID 488789).
In test [4] the test system is BJ. The test can be described thus: cytotoxicity toward BJ-TERT fibroblasts, dose response, cell-based, RAS-independent, luminescence (AID 1933). To be noted: Homo sapiens. The test is classed as functional.
Test [5] addresses Cyclin-dependent kinase 5/CDK5 activator 1 (Homo sapiens, UniProt Q00535). Kind of test: CDK5/p35 kinase inhibitors, dose response, biochemical, cherry-picked samples, set 2 (AID 504545).
Test [6] is described as follows: Luminescence Cell-Based Dose Confirmation HTS to Identify Inhibitors of Platelet Dense Granule Release. [Related pubchem assays: 1663 (Primary HTS), 1678 (Summary of Project)]. In kind it is functional.
Test [7] concerns the target Luciferin 4-monooxygenase (Photinus pyralis, UniProt P08659). Kind of test: firefly luciferase enzyme inhibitors, dose response, biochemical, luminescence (AID 1891).
Test [8] is described as follows: inhibition of ADP-Glo detection reagents, dose response, artefact control for CDK5 inhibitor project, biochemical, luminescence, cherry-picked samples, set 2 (AID 504546). In kind it is functional.
For another test, the target named is CAAX prenyl protease 1 (Saccharomyces cerevisiae S288c, UniProt P47154). Kind of test: Ste24 protease inhibitors, dose response, biochemical, S. cerevisiae, plate reader, cherry-pick (AID 488815).
The target of test [9] is CAAX prenyl protease 2 (Homo sapiens, UniProt Q9Y256). The test can be described thus: human Rce1 protease inhibitors, dose response, biochemical, yeast membranes, quenched-peptide fluorescence, cherry-pick (AID 588849).
The nature of test [10]: cytotoxicity toward DRD oncogenic fibroblasts, dose response, cell-based, non-viral oncogenic, luminescence (AID 1934). In kind it is functional. To be noted: Homo sapiens.
Test [11] has as its system BJ. The test can be described thus: cytotoxicity toward BJ-TERT-LT-ST fibroblasts, dose response, cell-based, RAS-independent, luminescence (AID 1935).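 Further: BJ fibroblasts immortalized with TERT plus LT and ST oncogenes.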 In kind it is functional. To be noted: Homo sapiens.
For test [12], the target named is T1, CAAX prenyl protease 2 (Saccharomyces cerevisiae S288c, UniProt Q03530).
T1 sequence (Q03530 whole entry): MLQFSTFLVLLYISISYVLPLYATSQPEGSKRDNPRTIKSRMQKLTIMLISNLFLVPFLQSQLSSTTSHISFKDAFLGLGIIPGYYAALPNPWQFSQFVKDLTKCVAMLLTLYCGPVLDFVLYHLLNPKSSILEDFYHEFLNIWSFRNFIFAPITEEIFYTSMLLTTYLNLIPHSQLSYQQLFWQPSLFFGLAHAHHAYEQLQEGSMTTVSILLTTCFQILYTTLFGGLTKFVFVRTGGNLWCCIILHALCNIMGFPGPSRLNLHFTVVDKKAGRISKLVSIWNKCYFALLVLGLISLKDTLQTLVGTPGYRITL
In kind it is biochemical.

Test [13] is described as follows: inhibitors of SNCA 5'UTR-driven reporter translation, confirmation, H4 neuroglioma cells, luminescence (AID 1988). In kind it is functional, cell-based.
The nature of test [14]: Luminescence Cell-Based Dose Response HTS to Identify Inhibitors of 5'UTR Stem-Loop Driven Prion Protein mRNA Translation in H4 Neuroglioblastoma Cells. [Related pubchem assays: 1827 (Project Summary), 1813 (Primary HTS)]. The test is classed as functional.
In test [15] the target is T2, Zinc finger protein mex-5 (Caenorhabditis elegans, UniProt Q9XUB2).
T2 sequence (Q9XUB2 whole entry): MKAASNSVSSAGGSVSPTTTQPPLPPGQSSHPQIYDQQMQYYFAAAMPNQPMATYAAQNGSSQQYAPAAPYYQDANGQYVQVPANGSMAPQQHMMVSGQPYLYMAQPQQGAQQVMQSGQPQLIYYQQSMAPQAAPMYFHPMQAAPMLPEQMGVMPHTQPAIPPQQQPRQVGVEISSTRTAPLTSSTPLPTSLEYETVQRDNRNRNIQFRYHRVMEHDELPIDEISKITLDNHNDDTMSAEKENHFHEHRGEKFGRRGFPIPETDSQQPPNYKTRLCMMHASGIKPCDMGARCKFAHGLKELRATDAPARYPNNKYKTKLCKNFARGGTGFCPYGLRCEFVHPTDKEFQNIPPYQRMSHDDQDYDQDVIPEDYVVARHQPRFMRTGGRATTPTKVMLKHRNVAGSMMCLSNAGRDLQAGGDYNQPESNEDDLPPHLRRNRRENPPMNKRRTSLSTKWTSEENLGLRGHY
The test can be described thus: MEX-5/TCR-2 RNA interaction inhibitors, dose response, biochemical, C. elegans, fluorescence polarization (AID 1960).

The target in test [16] is Neurotensin receptor type 1 (Homo sapiens, UniProt P30989). In kind it is functional.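 Further: Image-based confirmatory dose-response assay measuring agonist activity at NTR1; NTR1-expressing U2OS osteosarcoma cells imaged for beta-arrestin GFP spot formation; agonist potency where compounds increase beta-arrestin recruitment.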
Test [17] has as its target T3, RNA-binding protein pos-1 (Caenorhabditis elegans, UniProt G5EF15).
T3 sequence (G5EF15 whole entry): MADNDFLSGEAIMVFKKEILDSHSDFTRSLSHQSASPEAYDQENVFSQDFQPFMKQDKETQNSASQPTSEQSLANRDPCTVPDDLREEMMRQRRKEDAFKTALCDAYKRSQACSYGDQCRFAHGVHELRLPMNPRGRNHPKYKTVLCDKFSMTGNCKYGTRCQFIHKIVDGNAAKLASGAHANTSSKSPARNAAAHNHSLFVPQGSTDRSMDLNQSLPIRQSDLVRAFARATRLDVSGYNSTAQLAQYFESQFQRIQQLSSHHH
Kind of test: inhibitors of POS-1/mex-3 RNA binding, dose response, biochemical, fluorescence polarization (AID 1964).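 Further: purified POS-1 fused to maltose binding protein made in E. coli; potency of compounds blocking POS-1 binding to fluorescent RNA.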

Test [18] in a line: Luminescence Cell-Based Dose Confirmation HTS to Identify Activators of 5'UTR Stem-Loop Driven Alpha-Synuclein mRNA Translation in H4 Neuroglioblastoma Cells. [Related pubchem assays: 1829 (Project Summary), 1814 (Primary HTS)]. In kind it is functional.
A short description of test [19]: Luminescence Cell-Based Dose Retest to Confirm Activators of 5'UTR Stem-Loop Driven Alpha-Synuclein mRNA Translation in H4 Neuroglioblastoma Cells. [Related pubchem assays (depositor defined):AID1813, AID1829]. The test is classed as functional.
In a further test the test system is H4. Kind of test: Luminescence Cell-Based Dose Response HTS to Identify Activators of 5'UTR Stem-Loop Driven Prion Protein mRNA Translation in H4 Neuroglioblastoma Cells. [Related pubchem assays: 1829 (Project Summary), 1814 (Primary HTS)]. The test is classed as functional. To be noted: Homo sapiens.
Test [20] deals with T4, Heat shock factor protein 1 (Mus musculus, UniProt P38532).
T4 sequence (P38532 whole entry): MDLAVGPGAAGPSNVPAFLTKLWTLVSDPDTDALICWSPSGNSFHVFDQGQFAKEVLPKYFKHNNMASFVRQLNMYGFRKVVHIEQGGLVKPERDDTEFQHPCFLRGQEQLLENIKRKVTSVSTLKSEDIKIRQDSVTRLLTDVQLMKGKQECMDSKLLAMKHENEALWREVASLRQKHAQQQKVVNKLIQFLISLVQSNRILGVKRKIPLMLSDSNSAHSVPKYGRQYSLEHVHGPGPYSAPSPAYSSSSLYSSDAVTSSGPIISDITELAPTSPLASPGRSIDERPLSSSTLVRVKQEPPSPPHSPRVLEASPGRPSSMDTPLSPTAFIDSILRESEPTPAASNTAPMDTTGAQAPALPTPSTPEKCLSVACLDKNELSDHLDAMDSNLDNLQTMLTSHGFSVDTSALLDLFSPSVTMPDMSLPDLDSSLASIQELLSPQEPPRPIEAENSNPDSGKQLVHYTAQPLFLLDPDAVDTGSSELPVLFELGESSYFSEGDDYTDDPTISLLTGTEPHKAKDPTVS
The test can be described thus: HSF1 potentiators in luciferase reporter cells, confirmation, cell-based, NIH3T3, luminescence, dose retest (AID 435004).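 Further: stress induced by proteasome inhibitor MG132 added 30 min after compound; luciferase reporter driven by HSF1 response element in NIH3T3 cells; actives raise luminescence as potentiators of the MG132 stress response.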 The test is classed as functional.

A short description of test [21]: Luminescence Cell-Based Dose Response HTS to Identify Activators of Luciferase Translation or Activity in H4 […] Cells. [Related pubchem assays: 1829 (Project Summary), 1814 (Primary HTS)]. The test is classed as functional.
Test [22] can be described thus: Luminescence Cell-Based Dose Response HTS to Identify Activators of Luciferase Translation or Activity in H4-C Neuroglioblastoma Cells. [Related pubchem assays: 1829 (Project Summary), 1814 (Primary HTS)]. The test is classed as functional.
Test [23] in a line: Luminescence Cell-Based Dose Response HTS to Identify Activators of 5'UTR Stem-Loop Driven Prion Protein mRNA Translation in H4-C Neuroglioblastoma Cells. [Related pubchem assays: 1829 (Project Summary), 1814 (Primary HTS)]. In kind it is functional.
The target in test [24] is Scavenger receptor class B member 1 (Mus musculus, UniProt Q61009). Kind of test: inhibitors of SR-BI mediated HDL lipid uptake, dose response, ldlA[mSR-BI] cells, fluorescence, cherry pick (AID 493194).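 Further: cellular uptake of fluorescent DiI-labeled HDL measured as cell fluorescence.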 The test is classed as functional, cell-based.
Test [25] deals with Metabotropic glutamate receptor 4 (Homo sapiens, UniProt Q14833). The test can be described thus: Modulation of the Metabotropic Glutamate Receptor mGluR4: Potency at human mGluR4. Modulation of intracellular Ca2+ using Fluo-4, AM, in CHO expressing recombinant receptor [Related pubchem assays (depositor defined):AID2437, AID2807]. In kind it is functional, cell-based.
The target in test [26] is Metabotropic glutamate receptor 4 (Rattus norvegicus, UniProt P31423). The test can be described thus: Modulation of the Metabotropic Glutamate Receptor mGluR4: Rat PAM Potency. [Related pubchem assays (depositor defined):AID2437, AID2807]. The test is classed as functional.
Sequence of Metabotropic glutamate receptor 4 (Rattus norvegicus, UniProt P31423) (P31423 whole entry): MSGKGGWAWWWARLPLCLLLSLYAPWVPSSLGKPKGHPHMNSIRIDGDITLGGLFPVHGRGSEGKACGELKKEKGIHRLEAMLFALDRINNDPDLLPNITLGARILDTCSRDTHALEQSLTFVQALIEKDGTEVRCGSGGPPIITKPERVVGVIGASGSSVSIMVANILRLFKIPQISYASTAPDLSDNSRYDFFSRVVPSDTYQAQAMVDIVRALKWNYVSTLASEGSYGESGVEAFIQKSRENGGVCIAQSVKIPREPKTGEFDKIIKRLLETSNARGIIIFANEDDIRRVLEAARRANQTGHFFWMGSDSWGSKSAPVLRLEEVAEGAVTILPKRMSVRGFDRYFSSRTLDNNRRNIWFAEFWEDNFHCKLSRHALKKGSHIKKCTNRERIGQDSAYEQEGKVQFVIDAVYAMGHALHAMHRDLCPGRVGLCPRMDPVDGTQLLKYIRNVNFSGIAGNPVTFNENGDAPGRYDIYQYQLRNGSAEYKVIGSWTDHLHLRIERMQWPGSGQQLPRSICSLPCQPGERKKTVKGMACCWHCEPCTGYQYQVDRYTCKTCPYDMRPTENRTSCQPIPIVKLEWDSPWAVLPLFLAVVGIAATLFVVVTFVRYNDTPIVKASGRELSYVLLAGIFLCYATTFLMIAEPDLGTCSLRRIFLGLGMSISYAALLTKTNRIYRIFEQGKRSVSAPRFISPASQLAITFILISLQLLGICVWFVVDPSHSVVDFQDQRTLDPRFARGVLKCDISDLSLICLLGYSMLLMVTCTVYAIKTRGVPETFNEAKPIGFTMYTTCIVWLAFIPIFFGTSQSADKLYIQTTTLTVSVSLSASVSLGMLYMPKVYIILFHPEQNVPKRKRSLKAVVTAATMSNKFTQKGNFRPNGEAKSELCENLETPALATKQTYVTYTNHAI

Sequence of Cyclin-dependent kinase 5/CDK5 activator 1 (Q00535 whole entry): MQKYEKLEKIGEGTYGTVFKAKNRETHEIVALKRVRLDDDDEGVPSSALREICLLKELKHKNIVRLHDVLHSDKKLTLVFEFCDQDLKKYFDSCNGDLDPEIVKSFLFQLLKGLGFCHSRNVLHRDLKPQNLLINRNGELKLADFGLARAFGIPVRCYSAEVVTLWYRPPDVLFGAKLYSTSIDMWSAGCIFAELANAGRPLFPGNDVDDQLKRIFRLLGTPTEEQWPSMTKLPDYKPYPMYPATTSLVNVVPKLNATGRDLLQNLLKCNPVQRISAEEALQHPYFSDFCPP
Sequence of Cyclin-dependent kinase 5/CDK5 activator 1 (Q15078 whole entry, further chain): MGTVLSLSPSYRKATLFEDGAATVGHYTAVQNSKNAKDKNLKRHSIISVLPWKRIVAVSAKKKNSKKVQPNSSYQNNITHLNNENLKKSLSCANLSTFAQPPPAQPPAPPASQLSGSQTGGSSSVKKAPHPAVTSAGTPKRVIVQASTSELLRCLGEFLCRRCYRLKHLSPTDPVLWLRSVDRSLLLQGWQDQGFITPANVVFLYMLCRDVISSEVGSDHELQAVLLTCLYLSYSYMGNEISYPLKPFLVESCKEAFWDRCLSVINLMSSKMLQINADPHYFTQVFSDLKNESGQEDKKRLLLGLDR
Sequence of Luciferin 4-monooxygenase (P08659 whole entry): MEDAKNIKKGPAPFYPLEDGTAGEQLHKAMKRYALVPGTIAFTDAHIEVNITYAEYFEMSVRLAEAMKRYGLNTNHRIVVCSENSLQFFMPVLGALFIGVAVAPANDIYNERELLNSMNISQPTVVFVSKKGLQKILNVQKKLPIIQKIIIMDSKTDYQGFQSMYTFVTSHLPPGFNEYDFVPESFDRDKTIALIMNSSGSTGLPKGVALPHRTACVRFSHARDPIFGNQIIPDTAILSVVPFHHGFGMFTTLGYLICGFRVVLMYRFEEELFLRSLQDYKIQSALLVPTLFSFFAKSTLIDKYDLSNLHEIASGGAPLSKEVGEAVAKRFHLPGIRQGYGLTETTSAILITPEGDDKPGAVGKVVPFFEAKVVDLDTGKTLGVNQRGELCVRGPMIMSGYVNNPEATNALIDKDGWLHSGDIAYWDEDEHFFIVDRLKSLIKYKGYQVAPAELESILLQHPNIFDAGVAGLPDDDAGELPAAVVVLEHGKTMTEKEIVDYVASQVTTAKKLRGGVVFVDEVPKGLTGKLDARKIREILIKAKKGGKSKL
Sequence of Scavenger receptor class B member 1 (Q61009 whole entry): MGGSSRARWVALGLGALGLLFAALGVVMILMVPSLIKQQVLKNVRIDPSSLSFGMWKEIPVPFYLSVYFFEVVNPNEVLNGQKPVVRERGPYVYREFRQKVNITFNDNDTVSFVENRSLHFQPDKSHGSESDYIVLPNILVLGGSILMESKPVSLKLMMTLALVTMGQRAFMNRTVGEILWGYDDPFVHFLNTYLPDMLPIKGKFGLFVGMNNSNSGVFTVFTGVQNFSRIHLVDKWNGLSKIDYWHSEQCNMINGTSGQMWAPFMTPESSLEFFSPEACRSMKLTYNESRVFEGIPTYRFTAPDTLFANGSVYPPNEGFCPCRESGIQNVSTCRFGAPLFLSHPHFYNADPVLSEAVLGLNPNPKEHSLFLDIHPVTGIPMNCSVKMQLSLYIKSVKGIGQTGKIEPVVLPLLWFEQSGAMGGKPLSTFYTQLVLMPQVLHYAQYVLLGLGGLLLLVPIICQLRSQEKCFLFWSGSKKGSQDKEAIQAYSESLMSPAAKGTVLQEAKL
Sequence of CAAX prenyl protease 1 (P47154 whole entry): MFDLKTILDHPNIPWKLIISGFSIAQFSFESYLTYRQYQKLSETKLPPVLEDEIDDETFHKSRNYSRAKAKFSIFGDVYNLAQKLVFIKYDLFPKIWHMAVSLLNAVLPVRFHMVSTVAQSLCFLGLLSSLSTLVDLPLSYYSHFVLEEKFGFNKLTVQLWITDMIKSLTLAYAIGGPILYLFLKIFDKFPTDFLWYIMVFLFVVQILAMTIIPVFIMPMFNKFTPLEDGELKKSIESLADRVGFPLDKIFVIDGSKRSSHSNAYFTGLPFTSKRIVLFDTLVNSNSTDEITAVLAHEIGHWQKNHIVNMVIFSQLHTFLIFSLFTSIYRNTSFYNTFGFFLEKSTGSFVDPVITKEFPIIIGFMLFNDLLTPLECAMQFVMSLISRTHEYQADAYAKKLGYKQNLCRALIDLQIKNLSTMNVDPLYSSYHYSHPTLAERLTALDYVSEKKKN
Sequence of Neurotensin receptor type 1 (P30989 whole entry): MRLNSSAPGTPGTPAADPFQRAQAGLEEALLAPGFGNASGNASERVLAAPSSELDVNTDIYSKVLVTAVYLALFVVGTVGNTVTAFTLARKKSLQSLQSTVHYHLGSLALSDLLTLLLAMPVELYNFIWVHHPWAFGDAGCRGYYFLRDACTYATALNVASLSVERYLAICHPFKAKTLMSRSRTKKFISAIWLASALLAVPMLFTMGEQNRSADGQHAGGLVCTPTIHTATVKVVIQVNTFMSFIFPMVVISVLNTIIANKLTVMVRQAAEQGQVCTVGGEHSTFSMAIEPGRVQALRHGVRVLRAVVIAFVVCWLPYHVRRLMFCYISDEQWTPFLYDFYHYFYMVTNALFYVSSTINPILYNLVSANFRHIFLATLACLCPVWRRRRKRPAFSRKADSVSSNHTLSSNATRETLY
Sequence of Metabotropic glutamate receptor 4 (Homo sapiens, UniProt Q14833) (Q14833 whole entry): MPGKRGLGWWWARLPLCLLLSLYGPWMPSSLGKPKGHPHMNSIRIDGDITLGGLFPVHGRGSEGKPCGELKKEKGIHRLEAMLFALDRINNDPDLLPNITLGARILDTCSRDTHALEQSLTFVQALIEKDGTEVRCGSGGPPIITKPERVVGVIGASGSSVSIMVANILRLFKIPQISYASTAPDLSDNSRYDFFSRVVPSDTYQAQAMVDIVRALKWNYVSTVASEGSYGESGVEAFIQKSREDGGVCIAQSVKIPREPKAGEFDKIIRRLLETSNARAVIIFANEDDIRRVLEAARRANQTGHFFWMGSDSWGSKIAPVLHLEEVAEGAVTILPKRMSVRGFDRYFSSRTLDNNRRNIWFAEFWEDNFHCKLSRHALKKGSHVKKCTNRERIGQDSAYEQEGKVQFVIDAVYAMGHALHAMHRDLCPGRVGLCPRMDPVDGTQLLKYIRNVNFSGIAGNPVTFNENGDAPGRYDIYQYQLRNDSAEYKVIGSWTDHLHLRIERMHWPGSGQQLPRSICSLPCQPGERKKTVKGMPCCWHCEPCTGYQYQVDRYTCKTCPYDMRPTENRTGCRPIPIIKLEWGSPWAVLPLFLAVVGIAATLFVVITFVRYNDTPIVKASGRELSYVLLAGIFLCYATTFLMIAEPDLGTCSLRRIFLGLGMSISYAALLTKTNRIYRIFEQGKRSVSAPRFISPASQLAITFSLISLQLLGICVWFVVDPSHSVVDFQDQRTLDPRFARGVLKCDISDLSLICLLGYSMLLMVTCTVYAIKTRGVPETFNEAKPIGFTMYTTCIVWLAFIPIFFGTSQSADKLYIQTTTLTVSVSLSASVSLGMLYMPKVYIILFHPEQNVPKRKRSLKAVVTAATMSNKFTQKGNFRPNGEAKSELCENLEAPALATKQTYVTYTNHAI
Sequence of CAAX prenyl protease 2 (Homo sapiens, UniProt Q9Y256) (Q9Y256 whole entry): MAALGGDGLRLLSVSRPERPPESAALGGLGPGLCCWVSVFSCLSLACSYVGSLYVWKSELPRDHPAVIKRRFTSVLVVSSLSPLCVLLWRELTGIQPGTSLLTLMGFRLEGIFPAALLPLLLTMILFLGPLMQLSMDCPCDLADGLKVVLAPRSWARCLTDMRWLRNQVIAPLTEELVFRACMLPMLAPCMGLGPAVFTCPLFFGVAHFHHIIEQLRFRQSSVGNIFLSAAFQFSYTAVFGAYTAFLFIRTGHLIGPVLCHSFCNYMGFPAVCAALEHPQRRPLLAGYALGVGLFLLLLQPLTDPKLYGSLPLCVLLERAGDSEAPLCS
Sequence of Trypsin (P00761 whole entry): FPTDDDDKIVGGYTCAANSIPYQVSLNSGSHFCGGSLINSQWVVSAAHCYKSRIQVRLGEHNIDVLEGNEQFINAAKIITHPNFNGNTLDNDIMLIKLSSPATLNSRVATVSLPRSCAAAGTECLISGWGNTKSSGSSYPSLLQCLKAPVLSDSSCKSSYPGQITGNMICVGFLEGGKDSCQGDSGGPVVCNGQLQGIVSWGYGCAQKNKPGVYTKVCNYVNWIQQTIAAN

As for `O=C(Nc1nnc(/C=C/c2ccccc2)s1)c1ccco1`, in test [1], the IC50 was > 75 µM (active).

Turning to `Cc1ccc2nc(-c3ccccc3)cn2c1`, the EC50 is 1.32 µM (active) in [2]; 9.05 µM (active) with BJ [3]; 9.54 µM (active) in the test on BJ [4]; 2.18 µM (active) in [6]; 1.58 µM (active) in test [7]; 7.45 µM (active) in test [10]. The figures for the EC50 (with BJ [11]; in [13]; in test [14]) were > 150 µM (inconclusive), 0.717 µM (active) and 8.72 µM (active), respectively. The AC50 at Trypsin was 59.9 µM (active); in test [5], 18.6 µM (active); in test [8], 59.3 µM (active); at CAAX prenyl protease 1 it was 7.44 µM (active); on CAAX prenyl protease 2 [9], > 100 µM (inactive); at CAAX prenyl protease 2 [12], > 100 µM (inactive).

On to `O=C1NC(=O)C(=Cc2cn(CCOc3ccc4c(c3)OCO4)c3ccccc23)C(=O)N1`, for which the figures for the EC50 in [15], in test [16] and in test [17] were 11.9 µM (active), 4.12 µM (active) and 16.7 µM (active), respectively.

On to `Cc1cccc(NCc2nc3ccccc3n2C)c1`, for which the EC50 in test [18] was 0.296 µM (active); in test [19] it was 0.752 µM (active); in the test with H4, 8.1 µM (active); in test [20], 201 µM (active); in test [21], > 120 µM (not active); in [22], 1.63 µM (active). The EC50 in test [23] is 3.39 µM (active).

On to `CCc1sc(N2C(=O)C3C4CCC(C4=C(C)C)C3C2=O)nc1-c1ccccc1` (centres undefined), for which the AC50 in [24] was 0.635 µM (active).

`O=C(Nc1ccc(N2C(=O)[C@@H]3[C@H](C2=O)[C@@H]2CC[C@H]3O2)c(Cl)c1)c1ccccn1`: the EC50 is 1.44 µM (active) in test [25] and 2.29 µM (active) in test [26].
